# Key:
# Assay type in all cases: in vivo
# Details in all cases: 250 g/ha, evaluated after 13 days
# [1] = tested on: Amaranthus palmeri (AMAPA); assay: Post-emergence herbicidal glasshouse test
# Method: (§1) Seeds of a variety of test species are sown in standard soil in pots Amaranthus palmeri (AMAPA), Amaranthus retoflexus (AMARE), Echinochloa crus-galli (ECHCG), Ipomoea hederacea (IPOHE), Setaria faberi (SETFA). After cultivation for one day (pre-emergence) or after 8 days cultivation (post-emergence) under controlled conditions in a glasshouse (at 24/16 °C, day/night; 14 hours light; 65% humidity), the plants are sprayed with an aqueous spray solution derived from the formulation of the technical active ingredient in acetone/water (50:50) solution containing 0.5% Tween 20 (polyoxyethelyene sorbitan monolaurate, CAS RN 9005-64-5). Compounds are applied at 250 g/ha unless otherwise stated. The test plants are then grown in a glasshouse under controlled conditions in a glasshouse (at 24/16 °C, day/night; 14 hours light; 65% humidity) and watered twice daily. After 13 days for pre and post-emergence, the test is evaluated for the percentage damage caused to the plant. The biological activities are shown in the following table on a five-point scale (5=81-100%; 4=61-80%; 3=41-60%; 2=21-40%; 1=0-20%).
# [2] = tested on: Amaranthus retoflexus (AMARE); assay: Post-emergence herbicidal glasshouse test
# Method: as §1
# [3] = tested on: Echinochloa crus-galli (ECHCG); assay: Post-emergence herbicidal glasshouse test
# Method: as §1
# [4] = tested on: Ipomoea hederacea (IPOHE); assay: Post-emergence herbicidal glasshouse test
# Method: as §1
# [5] = tested on: Amaranthus palmeri (AMAPA); assay: Pre-emergence herbicidal glasshouse test
# Method: as §1
# [6] = tested on: Amaranthus retoflexus (AMARE); assay: Pre-emergence herbicidal glasshouse test
# Method: as §1
# [7] = tested on: Echinochloa crus-galli (ECHCG); assay: Pre-emergence herbicidal glasshouse test
# Method: as §1
# [8] = tested on: Ipomoea hederacea (IPOHE); assay: Pre-emergence herbicidal glasshouse test
# Method: as §1
# Setaria faberi (SETFA) [9] = assay: Post-emergence herbicidal glasshouse test
# Method: as §1
# Setaria faberi (SETFA) [10] = assay: Pre-emergence herbicidal glasshouse test
# Method: as §1
smiles,measurement,setting,value
FC(F)c1cc(Cc2ncc(Cl)cn2)n(CCC2CCOC2)n1 (centres unmarked) [Compound 1.001],"percentage damage caused to the plant (five-point scale), AMAPA",[1],1 (0-20%)
same,"percentage damage caused to the plant (five-point scale), AMARE",[2],1 (0-20%)
same,"percentage damage caused to the plant (five-point scale), ECHCG",[3],1 (0-20%)
same,"percentage damage caused to the plant (five-point scale), IPOHE",[4],2 (21-40%)
same,"percentage damage caused to the plant (five-point scale), AMAPA",[5],2 (21-40%)
same,"percentage damage caused to the plant (five-point scale), AMARE",[6],1 (0-20%)
same,"percentage damage caused to the plant (five-point scale), ECHCG",[7],1 (0-20%)
same,"percentage damage caused to the plant (five-point scale), IPOHE",[8],2 (21-40%)
FC(F)c1cc(Cc2ncc(Cl)cn2)n(CCCC(F)(F)F)n1 [Compound 1.002],"percentage damage caused to the plant (five-point scale), AMAPA",[1],1 (0-20%)
same,"percentage damage caused to the plant (five-point scale), AMARE",[2],2 (21-40%)
same,"percentage damage caused to the plant (five-point scale), ECHCG",[3],1 (0-20%)
same,"percentage damage caused to the plant (five-point scale), IPOHE",[4],2 (21-40%)
same,"percentage damage caused to the plant (five-point scale), AMAPA",[5],5 (81-100%)
same,"percentage damage caused to the plant (five-point scale), AMARE",[6],5 (81-100%)
same,"percentage damage caused to the plant (five-point scale), ECHCG",[7],1 (0-20%)
same,"percentage damage caused to the plant (five-point scale), IPOHE",[8],3 (41-60%)
FC(F)c1cc(Cc2ncc(Cl)cn2)n(CCC2CC2)n1 [Compound 1.003],"percentage damage caused to the plant (five-point scale), AMAPA",[1],1 (0-20%)
same,"percentage damage caused to the plant (five-point scale), AMARE",[2],1 (0-20%)
same,"percentage damage caused to the plant (five-point scale), ECHCG",[3],1 (0-20%)
same,"percentage damage caused to the plant (five-point scale), IPOHE",[4],3 (41-60%)
same,"percentage damage caused to the plant (five-point scale), AMAPA",[5],4 (61-80%)
same,"percentage damage caused to the plant (five-point scale), AMARE",[6],4 (61-80%)
same,"percentage damage caused to the plant (five-point scale), ECHCG",[7],1 (0-20%)
same,"percentage damage caused to the plant (five-point scale), IPOHE",[8],1 (0-20%)
FC(F)CCCn1nc(C(F)F)cc1Cc1ncc(Cl)cn1 [Compound 1.004],"percentage damage caused to the plant (five-point scale), AMAPA",[1],3 (41-60%)
same,"percentage damage caused to the plant (five-point scale), AMARE",[2],3 (41-60%)
same,"percentage damage caused to the plant (five-point scale), ECHCG",[3],1 (0-20%)
same,"percentage damage caused to the plant (five-point scale), IPOHE",[4],2 (21-40%)
same,"percentage damage caused to the plant (five-point scale), AMAPA",[5],4 (61-80%)
same,"percentage damage caused to the plant (five-point scale), AMARE",[6],4 (61-80%)
same,"percentage damage caused to the plant (five-point scale), ECHCG",[7],1 (0-20%)
same,"percentage damage caused to the plant (five-point scale), IPOHE",[8],2 (21-40%)
"FC(F)CCCn1nc(C(F)(F)F)cc1Cc1ncc(Cl)cn1 [Compound 1.005, 5-chloro-2-[[2-(4,4-difluorobutyl)-5-(trifluoromethyl)pyrazol-3-yl]methyl]pyrimidine]","percentage damage caused to the plant (five-point scale), AMARE",[2],5 (81-100%)
same,"percentage damage caused to the plant (five-point scale), ECHCG",[3],4 (61-80%)
same,"percentage damage caused to the plant (five-point scale), IPOHE",[4],3 (41-60%)
same,"percentage damage caused to the plant (five-point scale), SETFA",Setaria faberi (SETFA) [9],4 (61-80%)
same,"percentage damage caused to the plant (five-point scale), AMAPA",[5],5 (81-100%)
same,"percentage damage caused to the plant (five-point scale), AMARE",[6],5 (81-100%)
same,"percentage damage caused to the plant (five-point scale), ECHCG",[7],4 (61-80%)
same,"percentage damage caused to the plant (five-point scale), IPOHE",[8],5 (81-100%)
same,"percentage damage caused to the plant (five-point scale), SETFA",Setaria faberi (SETFA) [10],5 (81-100%)
FC(F)(F)CCCn1nc(C(F)(F)F)cc1Cc1ncc(Cl)cn1 [Compound 1.006],"percentage damage caused to the plant (five-point scale), AMAPA",[1],5 (81-100%)
same,"percentage damage caused to the plant (five-point scale), AMARE",[2],5 (81-100%)
same,"percentage damage caused to the plant (five-point scale), ECHCG",[3],3 (41-60%)
same,"percentage damage caused to the plant (five-point scale), IPOHE",[4],3 (41-60%)
same,"percentage damage caused to the plant (five-point scale), SETFA",Setaria faberi (SETFA) [9],4 (61-80%)
same,"percentage damage caused to the plant (five-point scale), AMAPA",[5],5 (81-100%)
same,"percentage damage caused to the plant (five-point scale), AMARE",[6],5 (81-100%)
same,"percentage damage caused to the plant (five-point scale), ECHCG",[7],4 (61-80%)
same,"percentage damage caused to the plant (five-point scale), IPOHE",[8],3 (41-60%)
same,"percentage damage caused to the plant (five-point scale), SETFA",Setaria faberi (SETFA) [10],5 (81-100%)
FC(F)c1cc(Cc2ncc(Cl)cn2)n(CCC(F)(F)F)n1 [Compound 1.007],"percentage damage caused to the plant (five-point scale), AMAPA",[1],3 (41-60%)
same,"percentage damage caused to the plant (five-point scale), AMARE",[2],4 (61-80%)
same,"percentage damage caused to the plant (five-point scale), ECHCG",[3],2 (21-40%)
same,"percentage damage caused to the plant (five-point scale), IPOHE",[4],3 (41-60%)
same,"percentage damage caused to the plant (five-point scale), AMAPA",[5],5 (81-100%)
same,"percentage damage caused to the plant (five-point scale), AMARE",[6],5 (81-100%)
same,"percentage damage caused to the plant (five-point scale), ECHCG",[7],2 (21-40%)
same,"percentage damage caused to the plant (five-point scale), IPOHE",[8],4 (61-80%)
